# Data published in patent US20050187608A1, “Radioprotective compound coating for medical devices” (priority 2004, published 2005).
# pIC50: −log10 of the molar value. Marks after values point to notes of the source that are not given here.
# How the values were obtained:
# [1] = system: neointimal hyperplasia and inflammation; assay: Rapamycin compared with dexamethasone delivered from a stent; assay type: in vivo; conditions: for Inflammation Score: uncoated 0.97 ± 1.00; for Neointimal Area: uncoated 5.24 ± 1.65; for % Area Stenosis: uncoated 54 ± 19
# From the text: Dexamethasone, a potent steroidal anti-inflammatory agent, was used as a reference standard.
# [2] = In vivo release kinetics from rapamycin/mycophenolic acid coatings, porcine pharmacokinetics studies
# From the text: The topcoat is two hundred micro grams.
# [3] = system: human coronary artery smooth muscle cells; assay: Anti-proliferative activity of rapamycin with varying concentrations of mycophenolic acid; assay type: cell-based; conditions: non-synchronized cultured human coronary artery smooth muscle cells, two percent fetal bovine serum, mycophenolic acid zero to one thousand nano molar, FIG. 52
# From the text: The multiple curves represent various concentrations of mycophenolic acid ranging from zero to one thousand nano molar concentrations. […] This potentiation observed in cultured coronary artery smooth muscle cells preferably translates to an enhancement in anti-restenotic efficacy following vascular injury and a reduction in the required amount of either agent to achieve the desired anti-restenotic effect.
# [4] = system: human coronary artery smooth muscle cell proliferation; assay: In vitro cell culture study of coronary artery smooth muscle cell proliferation; assay type: cell-based
# From the text: FIG. 51 is a graph of the inhibition of coronary artery smooth muscle cells by trichostatin A in a cell culture study.
SMILES,Inflammation Score [1],Neointimal Area [1],% Area Stenosis [1] [%],further results
"C[C@@H]1C[C@H]2[C@@H]3CCC4=CC(=O)C=C[C@]4(C)[C@@]3(F)[C@@H](O)C[C@]2(C)[C@@]1(O)C(=O)CO [Dexamethasone, dexamethasone]",0.39 ± 0.24,4.31 ± 3.02 mm^2,45 ± 31,–
"CO[C@H]1C[C@@H]2CC[C@@H](C)[C@@](O)(O2)C(=O)C(=O)N2CCCC[C@H]2C(=O)O[C@H]([C@H](C)C[C@@H]2CC[C@@H](O)[C@H](OC)C2)CC(=O)[C@H](C)/C=C(\C)[C@@H](O)[C@@H](OC)C(=O)[C@H](C)C[C@H](C)/C=C/C=C/C=C/1C [Rapamycin, rapamycin]",0.13 ± 0.19,2.47 ± 0.94* mm^2,26 ± 10,"in vivo release rate ([2]; PVDF basecoat 600 μg, rapamycin and mycophenolic acid equally two thirds by weight, 200 μg PVDF topcoat, FIG. 56): slower release rate than that of mycophenolic acid"
COc1c(C)c2c(c(O)c1C/C=C(\C)CCC(=O)O)C(=O)OC2 [mycophenolic acid],–,–,–,"in vivo release of mycophenolic acid from the basecoat ([2]; EVA/BMA basecoat 600 μg with 30% rapamycin and 30% mycophenolic acid, BMA topcoat 0/100/200 μg, FIG. 54): elutes more completely over a shorter duration than the rapamycin; effect on the anti-proliferative rapamycin dose response curve [3]: potentiates the anti-proliferative activity of rapamycin"
CC(/C=C/C(=O)NO)=C\[C@@H](C)C(=O)c1ccc(N(C)C)cc1 [trichostatin A],–,–,–,"inhibition of human coronary artery smooth muscle cell proliferation ([4]; FIG. 51): completely inhibit; pIC50 ([4]; human coronary artery smooth muscle cells, read-out: anti-proliferative IC50): ~8.22"
